Reference: the kinase profiling compilation of Christmann-Franck et al. (2016)

What was measured:
Experiment in all cases: KINOMEscan competition binding
Conditions in all cases: compound 0.1 µM
[1] = system: ABL1 (human), P00519 [Q252H]
ACVR1 (human) = ACVR1 (human) (UniProt Q04771)
BMX (human) = BMX (human) (UniProt P51813)
BTK (human) = BTK (human) (UniProt Q06187)
CDK3 (human) = CDK3 (human) (UniProt Q00526)
CDK9 (human) = CDK9 (human) (UniProt P50750)
CDKL1 (human) = CDKL1 (human) (UniProt Q00532)
CSNK1A1L (human) = CSNK1A1L (human) (UniProt Q8N752)
CSNK1E (human) = CSNK1E (human) (UniProt P49674)
Chain of CSNK1E (human) (P49674 whole entry, looked up): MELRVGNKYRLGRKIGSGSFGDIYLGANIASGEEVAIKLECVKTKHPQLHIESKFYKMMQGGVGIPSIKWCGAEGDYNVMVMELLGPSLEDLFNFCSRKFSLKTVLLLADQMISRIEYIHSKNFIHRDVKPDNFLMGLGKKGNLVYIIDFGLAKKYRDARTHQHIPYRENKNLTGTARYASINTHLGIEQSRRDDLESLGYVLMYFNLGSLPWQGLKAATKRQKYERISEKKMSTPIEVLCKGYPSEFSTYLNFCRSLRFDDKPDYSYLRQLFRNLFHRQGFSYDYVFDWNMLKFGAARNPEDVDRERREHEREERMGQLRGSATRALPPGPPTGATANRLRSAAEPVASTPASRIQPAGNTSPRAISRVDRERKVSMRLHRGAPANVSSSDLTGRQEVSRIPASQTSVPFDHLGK

DYRK1B (human) = DYRK1B (human) (UniProt Q9Y463)
[2] = system: EGFR (human), P00533 [A750P; 747-749 del]
[3] = system: EGFR (human), P00533 [T790M]
EPHA1 (human) = EPHA1 (human) (UniProt P21709)
EPHA3 (human) = EPHA3 (human) (UniProt P29320)
EPHA4 (human) = EPHA4 (human) (UniProt P54764)
ITK (human) = ITK (human) (UniProt Q08881)
[4] = system: KIT (human), P10721 [D816H]
MAPK6 (human) = MAPK6 (human) (UniProt Q16659)
MKNK1 (human) = MKNK1 (human) (UniProt Q9BUB5)
MKNK2 (human) = MKNK2 (human) (UniProt Q9HBH9)
MTOR (human) = MTOR (human) (UniProt P42345)
NLK (human) = NLK (human) (UniProt Q9UBE8)
NUAK1 (human) = NUAK1 (human) (UniProt O60285)
Chain of NUAK1 (human) (O60285 whole entry, looked up): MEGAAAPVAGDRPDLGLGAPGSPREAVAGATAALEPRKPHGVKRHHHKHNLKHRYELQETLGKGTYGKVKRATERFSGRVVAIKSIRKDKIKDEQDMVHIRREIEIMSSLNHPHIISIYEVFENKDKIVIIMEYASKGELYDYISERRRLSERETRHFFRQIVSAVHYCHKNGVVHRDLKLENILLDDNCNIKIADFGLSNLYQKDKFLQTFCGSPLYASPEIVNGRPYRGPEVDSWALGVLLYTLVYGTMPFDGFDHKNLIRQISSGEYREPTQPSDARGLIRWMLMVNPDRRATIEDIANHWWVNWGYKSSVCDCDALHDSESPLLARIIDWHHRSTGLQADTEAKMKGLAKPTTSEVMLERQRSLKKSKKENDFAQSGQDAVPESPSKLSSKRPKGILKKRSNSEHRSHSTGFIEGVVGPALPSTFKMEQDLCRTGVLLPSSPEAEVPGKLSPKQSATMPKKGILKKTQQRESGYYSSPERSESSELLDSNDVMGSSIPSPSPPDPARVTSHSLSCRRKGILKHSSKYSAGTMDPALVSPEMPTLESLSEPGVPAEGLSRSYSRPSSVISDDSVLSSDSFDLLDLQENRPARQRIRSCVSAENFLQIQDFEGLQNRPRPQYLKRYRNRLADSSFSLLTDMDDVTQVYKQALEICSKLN

PIK3CA (human) = PIK3CA (human) (UniProt P42336)
[5] = system: PIK3CA (human), P42336 [E542K]
PKN1 (human) = PKN1 (human) (UniProt Q16512)
PKN3 (M.tuberculosis) = PKN3 (M.tuberculosis) (UniProt Q6P5Z2)
PRKG2 (human) = PRKG2 (human) (UniProt Q13237)
[6] = system: RET (human), P07949 [M918T]
ROS1 (human) = ROS1 (human) (UniProt P08922)
SLK (human) = SLK (human) (UniProt Q9H2G2)
SRC (human) = SRC (human) (UniProt P12931)
SRPK2 (human) = SRPK2 (human) (UniProt P78362)
Chain of SRPK2 (human) (P78362 whole entry, looked up): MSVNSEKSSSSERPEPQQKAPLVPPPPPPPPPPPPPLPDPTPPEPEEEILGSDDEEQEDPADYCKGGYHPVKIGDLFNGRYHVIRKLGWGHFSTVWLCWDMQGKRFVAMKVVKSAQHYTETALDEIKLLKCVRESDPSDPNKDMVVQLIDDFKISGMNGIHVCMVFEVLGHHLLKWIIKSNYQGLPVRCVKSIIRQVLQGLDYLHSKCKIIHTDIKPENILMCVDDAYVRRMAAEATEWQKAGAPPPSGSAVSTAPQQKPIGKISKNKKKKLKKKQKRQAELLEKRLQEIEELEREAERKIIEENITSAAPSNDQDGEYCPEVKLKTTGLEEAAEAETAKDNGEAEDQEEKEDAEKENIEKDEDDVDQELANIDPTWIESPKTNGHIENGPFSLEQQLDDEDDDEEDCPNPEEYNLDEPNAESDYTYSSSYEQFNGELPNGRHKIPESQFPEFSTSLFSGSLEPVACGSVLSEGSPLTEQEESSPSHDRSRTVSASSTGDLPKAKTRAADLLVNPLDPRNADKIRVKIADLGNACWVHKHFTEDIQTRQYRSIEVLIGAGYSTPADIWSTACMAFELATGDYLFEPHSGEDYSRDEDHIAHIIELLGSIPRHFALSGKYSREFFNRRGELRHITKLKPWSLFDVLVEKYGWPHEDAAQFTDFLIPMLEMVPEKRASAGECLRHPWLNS

STK17B (human) = STK17B (human) (UniProt O94768)
Chain of STK17B (human) (O94768 whole entry, looked up): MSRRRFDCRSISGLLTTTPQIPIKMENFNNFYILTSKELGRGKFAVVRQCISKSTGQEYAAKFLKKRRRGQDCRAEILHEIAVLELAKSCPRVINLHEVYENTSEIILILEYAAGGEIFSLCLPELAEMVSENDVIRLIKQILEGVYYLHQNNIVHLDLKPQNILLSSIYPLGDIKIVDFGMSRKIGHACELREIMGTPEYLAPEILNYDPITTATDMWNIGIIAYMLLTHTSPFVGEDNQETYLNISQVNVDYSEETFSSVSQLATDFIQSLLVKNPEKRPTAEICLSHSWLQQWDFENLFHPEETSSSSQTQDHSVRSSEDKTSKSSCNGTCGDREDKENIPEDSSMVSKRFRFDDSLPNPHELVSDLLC

STK32A (human) = STK32A (human) (UniProt Q8WU08)
STK32C (human) = STK32C (human) (UniProt Q86UX6)
STK35 (human) = STK35 (human) (UniProt Q8TDR2)
TLK2 (human) = TLK2 (human) (UniProt Q86UE8)
TXK (human) = TXK (human) (UniProt P42681)
Chain of TXK (human) (P42681 whole entry, looked up): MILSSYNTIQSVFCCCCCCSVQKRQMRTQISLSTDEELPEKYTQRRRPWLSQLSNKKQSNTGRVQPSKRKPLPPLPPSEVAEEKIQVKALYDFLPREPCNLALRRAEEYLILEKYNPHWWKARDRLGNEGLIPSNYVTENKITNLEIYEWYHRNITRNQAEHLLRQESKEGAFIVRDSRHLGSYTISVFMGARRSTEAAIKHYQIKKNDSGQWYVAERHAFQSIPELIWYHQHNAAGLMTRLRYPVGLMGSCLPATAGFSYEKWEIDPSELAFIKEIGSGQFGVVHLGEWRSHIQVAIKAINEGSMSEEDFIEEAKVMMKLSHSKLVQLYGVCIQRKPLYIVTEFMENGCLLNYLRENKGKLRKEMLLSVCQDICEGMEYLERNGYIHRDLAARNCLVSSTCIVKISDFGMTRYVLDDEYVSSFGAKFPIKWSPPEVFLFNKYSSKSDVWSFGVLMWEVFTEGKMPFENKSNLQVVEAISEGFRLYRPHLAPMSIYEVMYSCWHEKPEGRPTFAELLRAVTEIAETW

YSK4 (human) = YSK4 (human) (UniProt Q56UN5)
Chain of YSK4 (human) (Q56UN5 whole entry, looked up): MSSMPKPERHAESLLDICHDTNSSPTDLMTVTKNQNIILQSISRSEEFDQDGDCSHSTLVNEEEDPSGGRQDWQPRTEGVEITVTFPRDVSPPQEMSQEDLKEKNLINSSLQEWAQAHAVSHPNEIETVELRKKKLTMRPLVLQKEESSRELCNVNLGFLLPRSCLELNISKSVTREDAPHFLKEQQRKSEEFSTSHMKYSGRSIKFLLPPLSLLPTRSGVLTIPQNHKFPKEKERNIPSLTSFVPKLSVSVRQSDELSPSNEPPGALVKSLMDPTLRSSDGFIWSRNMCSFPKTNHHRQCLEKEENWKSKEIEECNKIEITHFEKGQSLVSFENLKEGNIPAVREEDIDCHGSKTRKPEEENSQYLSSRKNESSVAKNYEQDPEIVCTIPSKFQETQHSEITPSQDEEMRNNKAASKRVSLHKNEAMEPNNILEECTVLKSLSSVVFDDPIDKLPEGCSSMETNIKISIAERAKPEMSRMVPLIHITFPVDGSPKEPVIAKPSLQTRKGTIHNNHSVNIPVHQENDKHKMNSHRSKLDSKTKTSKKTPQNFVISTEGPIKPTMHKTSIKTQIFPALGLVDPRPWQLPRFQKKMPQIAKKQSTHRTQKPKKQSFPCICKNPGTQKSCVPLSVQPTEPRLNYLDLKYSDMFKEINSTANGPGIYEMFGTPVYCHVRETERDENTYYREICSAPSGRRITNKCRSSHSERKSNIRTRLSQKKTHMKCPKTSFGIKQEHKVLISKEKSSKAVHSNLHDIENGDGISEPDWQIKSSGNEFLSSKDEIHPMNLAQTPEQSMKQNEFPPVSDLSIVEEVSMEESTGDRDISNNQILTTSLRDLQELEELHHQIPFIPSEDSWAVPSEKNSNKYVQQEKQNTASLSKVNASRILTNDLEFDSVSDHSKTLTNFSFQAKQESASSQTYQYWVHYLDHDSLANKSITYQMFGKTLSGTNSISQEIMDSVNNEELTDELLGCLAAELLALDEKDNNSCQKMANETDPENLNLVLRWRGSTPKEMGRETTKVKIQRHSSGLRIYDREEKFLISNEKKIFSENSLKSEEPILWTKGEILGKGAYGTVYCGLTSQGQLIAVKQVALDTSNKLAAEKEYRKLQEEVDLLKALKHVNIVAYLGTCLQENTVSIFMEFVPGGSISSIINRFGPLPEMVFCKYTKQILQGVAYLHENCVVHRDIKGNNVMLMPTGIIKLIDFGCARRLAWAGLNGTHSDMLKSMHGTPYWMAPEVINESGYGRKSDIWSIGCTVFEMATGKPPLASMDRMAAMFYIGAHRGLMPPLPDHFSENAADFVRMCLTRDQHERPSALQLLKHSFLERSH

Chain of BTK (human) (Q06187 whole entry, looked up): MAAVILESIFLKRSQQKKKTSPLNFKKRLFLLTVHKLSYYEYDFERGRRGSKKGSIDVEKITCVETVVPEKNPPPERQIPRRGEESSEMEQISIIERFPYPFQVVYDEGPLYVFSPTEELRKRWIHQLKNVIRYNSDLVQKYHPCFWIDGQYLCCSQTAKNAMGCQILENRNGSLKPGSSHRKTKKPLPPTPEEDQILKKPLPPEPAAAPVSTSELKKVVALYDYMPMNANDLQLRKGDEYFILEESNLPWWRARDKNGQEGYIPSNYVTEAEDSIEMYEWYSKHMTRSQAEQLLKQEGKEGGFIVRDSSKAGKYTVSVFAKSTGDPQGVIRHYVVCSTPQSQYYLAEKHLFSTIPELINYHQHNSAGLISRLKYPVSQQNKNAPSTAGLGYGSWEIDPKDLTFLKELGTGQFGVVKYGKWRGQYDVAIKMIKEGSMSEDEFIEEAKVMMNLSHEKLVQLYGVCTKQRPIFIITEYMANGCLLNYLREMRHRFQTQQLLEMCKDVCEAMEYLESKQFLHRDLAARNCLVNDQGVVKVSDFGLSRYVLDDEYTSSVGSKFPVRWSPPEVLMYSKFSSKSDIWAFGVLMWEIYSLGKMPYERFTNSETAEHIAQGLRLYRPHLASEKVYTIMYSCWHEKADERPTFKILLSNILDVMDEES
Chain of CDK9 (human) (P50750 whole entry, looked up): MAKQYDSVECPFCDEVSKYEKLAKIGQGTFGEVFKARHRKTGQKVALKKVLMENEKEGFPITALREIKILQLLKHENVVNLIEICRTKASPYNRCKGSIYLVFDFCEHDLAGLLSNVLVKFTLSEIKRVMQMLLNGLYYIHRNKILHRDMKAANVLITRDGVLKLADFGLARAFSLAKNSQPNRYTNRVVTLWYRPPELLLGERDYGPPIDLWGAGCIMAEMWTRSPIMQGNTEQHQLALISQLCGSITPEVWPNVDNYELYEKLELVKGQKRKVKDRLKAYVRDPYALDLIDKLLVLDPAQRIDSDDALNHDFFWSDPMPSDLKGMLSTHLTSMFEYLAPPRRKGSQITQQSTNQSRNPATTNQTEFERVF

CCc1ccc(C(=O)Nc2cc(CN3CCN(C)CC3)cc(C(F)(F)F)c2)cc1C#Cc1cnc2ccnn2c1 gave a kinase still bound, per cent of control [1] of 100%, a kinase still bound, per cent of control (ACVR1 (human)) of 84% and a kinase still bound, per cent of control (BMX (human)) of 100%. The kinase still bound, per cent of control (BTK (human)) was 100%, the kinase still bound, per cent of control (CDK3 (human)) was 100% and the kinase still bound, per cent of control (CDK9 (human)) was 98%. It also gave a kinase still bound, per cent of control (CDKL1 (human)) of 100%, a kinase still bound, per cent of control (CSNK1A1L (human)) of 83% and a kinase still bound, per cent of control (CSNK1E (human)) of 85%. The kinase still bound, per cent of control (DYRK1B (human)) was 53%, the kinase still bound, per cent of control [2] was 90% and the kinase still bound, per cent of control [3] was 100%. It also gave a kinase still bound, per cent of control (EPHA1 (human)) of 86%, a kinase still bound, per cent of control (EPHA3 (human)) of 47% and a kinase still bound, per cent of control (EPHA4 (human)) of 97%. The kinase still bound, per cent of control (ITK (human)) was 100%, the kinase still bound, per cent of control [4] was 81% and the kinase still bound, per cent of control (MAPK6 (human)) was 98%. The kinase still bound, per cent of control (MKNK1 (human)) was 91%, the kinase still bound, per cent of control (MKNK2 (human)) was 100% and the kinase still bound, per cent of control (MTOR (human)) was 100%. For the same compound, the kinase still bound, per cent of control (NLK (human)) was 45%, the kinase still bound, per cent of control (NUAK1 (human)) was 100% and the kinase still bound, per cent of control (PIK3CA (human)) was 100%. For the same compound, the kinase still bound, per cent of control [5] was 100%, the kinase still bound, per cent of control (PKN1 (human)) was 100% and the kinase still bound, per cent of control (PKN3 (M.tuberculosis)) was 78%. For the same compound, the kinase still bound, per cent of control (PRKG2 (human)) was 100%, the kinase still bound, per cent of control [6] was 46% and the kinase still bound, per cent of control (ROS1 (human)) was 78%. It also gave a kinase still bound, per cent of control (SLK (human)) of 66%, a kinase still bound, per cent of control (SRC (human)) of 76% and a kinase still bound, per cent of control (SRPK2 (human)) of 75%. For the same compound, the kinase still bound, per cent of control (STK17B (human)) was 75%, the kinase still bound, per cent of control (STK32A (human)) was 69% and the kinase still bound, per cent of control (STK32C (human)) was 96%. For the same compound, the kinase still bound, per cent of control (STK35 (human)) was 100%, the kinase still bound, per cent of control (TLK2 (human)) was 100% and the kinase still bound, per cent of control (TXK (human)) was 79%. It also gave a kinase still bound, per cent of control (YSK4 (human)) of 100%.
